Patent publication US12139742B2, “Devices, systems, and methods for preparing a standardized inoculum for antimicrobial susceptibility testing” (Avails Medical, Inc., priority 2020, dated 2024)

Legend:
[1] = test system: KOx harboring the KPC-3 gene; experiment: Disk diffusion AST, single isolate with major error; format: cell-based, Klebsiella oxytoca
Experimental: (§1) The first set was prepared using the presently disclosed method 1700 (sample preparation time: between 60 minutes and 180 minutes) and the second set was prepared using traditional microbial subculturing techniques (sample preparation time: between 18 hours to 24 hours). The testing was conducted using the automated VITEK®2 GN81 AST platform (see Table 1) and manual Kirby-Bauer disk diffusion (see Table 2).

[2] = test system: 23 different positive blood culture (PBC) samples comprising seven different species of bacteria; experiment: Kirby-Bauer disk diffusion AST of 0.5 McFarland inocula (present method vs traditional subculture); format: cell-based; settings: for # I: number of isolates deemed intermediate (I); for # R: number of isolates deemed resistant (R); for # S: number of isolates deemed susceptible (S)
Source text: The standardized inoculum 1726 (e.g., the 0.5 McFarland inoculum) can then be used directly for antimicrobial susceptibility testing using manual disk diffusion or diluted further for automated AST platforms. For example, the standardized inoculum 1726 prepared using the method 1700 and system 1702 disclosed herein can be subjected to manual Kirby-Bauer disk diffusion AST or an automated AST platform such as the VITEK®2 platform.
(§2) Both the present method 1700 and traditional microbial subculturing techniques were used to prepare standardized 0.5 McFarland inocula for AST using Kirby-Bauer disk diffusion (see Table 1) and the automated VITEK2 GN81 AST platform (see Table 2).
(§3) Two sets of standardized 0.5 McFarland inocula were prepared from 23 different positive blood culture (PBC) samples comprising seven different species of bacteria. The 23 PBC samples included six samples of Escherichia coli (ECo), two samples of Enterobacter cloacae (ECl), three samples of Klebsiella pneumoniae (KPn), four samples of Klebsiella oxytoca (KOx), two samples of Citrobacter freundii (CFr), four samples of Serratia marcescens (SMa), and two samples of Klebsiella aerogenes (KAe).
as §1
In total, 296 minimum inhibitory concentrations (MICs) from the VITEK®2 GN81 platform and 224 zone sizes on disk diffusion were evaluated.

[3] = test system: 23 different positive blood culture (PBC) samples comprising seven different species of bacteria; experiment: VITEK 2 GN81 automated AST of 0.5 McFarland inocula (present method vs traditional subculture); format: cell-based; settings: for # I: number of isolates deemed intermediate (I); for # R: number of isolates deemed resistant (R); for # S: number of isolates deemed susceptible (S)
Experimental: as §2, §3, §1

[4] = inoculum prepared using the present method 1700

Molecule	susceptibility category ([1]; control 0.5 McFarland inoculum)	zone size ([1]; control 0.5 McFarland inoculum)	susceptibility category [1, 4]	zone size [1, 4]	# I [2]	# R [2]	# S [2]	# I [3]	# R [3]	# S [3]
C[C@@H](O)[C@H]1C(=O)N2C(C(=O)O)=C(S[C@@H]3CN[C@H](C(=O)N(C)C)C3)[C@H](C)[C@H]12 [Meropenem]	susceptible	23 mm	resistant	19 mm	–	–	–	–	–	–
Amoxicillin-Clavulanic acid	–	–	–	–	0	7	6	1	6	6
Gentamicin	–	–	–	–	1	2	20	1	2	20
Piperacillin-tazobactam	–	–	–	–	1	3	14	1	3	5
Trimethoprim-sulfamethoxazole	–	–	–	–	–	–	–	0	6	11
